Reference: patent publication US20200289521A1, “USE OF VITAMIN K IN COMBINATION WITH ANTICOAGULANTS” (KAYDENCE PHARMA AS, priority 2019, published 2020)

Legend:
VSMCs [1] = assay: Hypoxia (CoCl2) induced oxidative stress in VSMCs (DCFDA); type: cell-based; conditions: 50 μM CoCl2 for 19 hours; test substance 10 μM; 6 hours
Experimental: This study was performed to determine whether intracellular oxidative stress in VSCMs is derived from mitochondrial dysfunction. To perform this study, VSMCs were incubated with cobalt chloride, a known stabilizer of HIF1a. Cobalt chloride binding to HIF1a prevents the degradation of HIF1a and thus results in a cellular hypoxia state. HIF1a has been implicated in cancer biology as well as a number of other pathophysiologies, specifically in areas of vascularization and angiogenesis, energy metabolism, cell survival, and tumor invasion. Under normal circumstances, after injury, HIF1a is degraded by the enzyme prolyl hydroxylase (PHD). The continued up-regulation of HIF1a (mimicked by cobalt chloride) promotes tumor growth and metastasis through its role in initiating angiogenesis and regulating cellular metabolism to overcome hypoxia. Hypoxia promotes apoptosis in both normal and tumor cells. Additionally, hypoxia generates significant intracellular oxidative stress.
To perform the study, VSMCs (10,000 cells/well) were plated in a 96-well plate and left to adhere overnight. Next, the medium was changed to a medium supplemented with 50 μM CoCl2 for 19 hours. The next day, cells were washed and incubated for 1 hour with 20 μM DCFDA in the presence of a vehicle (solvent for CoCl2 and vitamin K2 (MK-7)/UQ10), 10 μM vitamin K2 (MK-7), or 10 μM UQ10 in medium. The medium was then changed to a medium supplemented with vehicle, vitamin K2 (MK-7)/UQ10, or CoCl2, and fluorescent was measured for 6 hours. Fluorescence intensity was normalized for cell count.

[2] = system: human vascular smooth muscle cells (hVSMCs); assay: ATP measurement in hVSMCs with warfarin and/or vitamin K2 (luminescence); type: cell-based; conditions: 24 hours
Experimental: This study was performed in order to determine the effect of vitamin K2 (MK-7) on warfarin-induced oxidative stress in muscles. To perform this study, human vascular smooth muscle cells (hVSMCs; 5,000 cells/well) were plated in 96-well dark plates and left to adhere overnight. Next, cells were incubated for 24 hours with either vehicle only (as blank control), warfarin (10 or 50 μM), vitamin K2 (MK-7) (10 μM), or a combination of warfarin (50 μM) and vitamin K2 (MK-7) (10 μM). Hoechst was added to correct for cell number (1 μg/mL). Next, ATP was measured using mammalian lysis buffer for 5 minutes after which 50 μL ATP substrate solution was added to the wells and incubated for 10 minutes in a dark environment. Finally, medium was transferred to a white plate to measure luminescence.

VSMCs [3] = assay: ATP increase in VSMCs, 48 hours, with CoCl2 arm (luminescence); type: cell-based
Experimental: This study was performed to further investigate the origin of ATP production that is influenced by vitamin K2 (MK-7). To perform this study, VSCMs (5000 cells/well) were plated in 96-well plates and left to adhere overnight. Next, cells were incubated for 48 hours with either vehicle, CoCl2 (100 μM), vitamin K2 (MK-7) (10 μM), or UQ10 (10 μM). Hoechst was added to correct for cell number (1 μg/mL). Next, ATP was measured using mammalian lysis buffer for 5 minutes, after which 50 μL ATP substrate solution was added to the wells and incubated for 10 minutes in a dark environment. Finally, medium was transferred to a white plate to measure luminescence.

[4] = Thrombin Time (TT), Coag-Chrom 3003, treated Sprague-Dawley rats; type: in vivo; conditions: added to dabigatran and to rivaroxaban
Experimental: To perform the study, 45 wild-type male Sprague-Dawley and 45 transgenic male Ren-2 rats [TGR(mREN-2)27] at the age of 10-11 weeks at the beginning of the treatment period were purchased from animal facility IKEM-CEM Institute of Clinical and Experimental Medicine (Prague, Czech Republic). All animals in the experiment were housed in individually ventilated cages (2-3 rats per cage) and kept in the animal rooms of JCET at a relative humidity of 55±10%, a temperature of 22±2° C., and a light cycle of 7 AM to 7 PM. The rats had free access to food and water. After delivery, animals were randomly divided into 10 experimental groups (5 or 10 rats per group), as indicated below in Table 1.
Four days before the start of the treatment, the first part of animals' body weight and food intake was measured in selected representative three cages (rats n=9) to calculate the appropriate amount of tested compounds required for addition to the diet to obtain the dosing indicated in Table 1. It was estimated that food intake was approximately 30 g of chow per rat per day. […] The body mass of the rats was measured at the beginning and at the end of treatment.
Prothrombin Time (PT), activated Partial Thromboplastin Time (aPTT), Thrombin Time (TT) and fibrinogen levels (Clauss method) were determined according to the manufacturer's instructions using Coag-Chrom 3003 apparatus (Bio-ksel, Grudziadz, Poland). […]

CC(C)=CCC/C(C)=C/CC/C(C)=C/CC/C(C)=C/CC/C(C)=C/CC/C(C)=C/CC/C(C)=C/CC1=C(C)C(=O)c2ccccc2C1=O [vitamin K2 (MK-7)]
hypoxia induced oxidative stress (VSMCs [1]): seems to counteract hypoxia induced oxidative stress
cell ATP / ATP generation ([2]; warfarin 10 or 50 μM, vitamin K2 (MK-7) 10 μM): increased cell ATP
oxidative stress induced by warfarin ([2]; warfarin 50 μM + vitamin K2 (MK-7) 10 μM): counteracted the oxidative stress induced by warfarin
ATP levels compared to CoCl2 (VSMCs [3]; 10 μM vs CoCl2 100 μM): significant higher ATP levels
ATP production compared to vehicle (VSMCs [3]; CoCl2 100 μM, vitamin K2 (MK-7) 10 μM): increased ATP production slightly, though significant
increase of thrombin time by addition of vitamin K2 (MK-7) [4]: 5-7%
